Results published in the NIST ThermoML archive (doi:10.1016/j.jct.2012.06.014).

Assay: cn = amount concentration of the nth substance listed, in mol/dm3
Conditions: 298.15 K, 101 kPa, Liquid, Open capillary

O=S(=O)([O-])[O-].O=S(=O)([O-])[O-].O=S(=O)([O-])[O-].[Fe+3].[Fe+3] [ferric sulfate] + O
Conditions | binary diffusion coefficient [m2/s]
c1 = 0.05 | 1.48e-09
c1 = 0.06 | 1.45e-09
c1 = 0.08 | 1.42e-09
c1 = 0.1 | 1.41e-09
c1 = 0.15 | 1.42e-09
c1 = 0.2 | 1.48e-09
